According to ChEMBL document CHEMBL4118056, “Antitubercular Activity of Mycelium-Associated Ganoderma Lanostanoids” (J Nat Prod, 2017):
In brackets after ≈: the same amount, converted by molar mass.

Tests used:
[1] = test system: Mycobacterium tuberculosis; assay: Antitubercular activity against Mycobacterium tuberculosis H37Ra; assay type: functional
Vero [2] = assay: Cytotoxicity against African green monkey Vero cells; assay type: cell-based; settings: Chlorocebus sabaeus
Vero [3] = assay: Cytotoxicity against African green monkey Vero cells by GFP based microplate assay; assay type: cell-based; settings: Chlorocebus sabaeus
[4] = test system: Mycobacterium tuberculosis; assay: Antitubercular activity against Mycobacterium tuberculosis H37Ra by GFP based microplate assay; assay type: functional

| SMILES | MIC [1] | IC50 (Vero [2]) | IC50 (Vero [3]) | MIC [4] |
| --- | --- | --- | --- | --- |
| CO[C@@H]1C[C@H]2C(C)(C)[C@@H](OC(C)=O)CC[C@]2(C)C2=C1[C@]1(C)[C@@H](O)C[C@H]([C@H](C)[C@H](C/C=C(\C)C(=O)O)OC(C)=O)[C@@]1(C)CC2 | 50 µg/mL (≈ 82.9 µM) | 32 µM |  |  |
| CC(=O)O[C@H]1C[C@H]([C@H](C)CC/C=C(\C)C(=O)O)[C@@]2(C)CC=C3C(=CC[C@H]4C(C)(C)[C@H](O)CC[C@]34C)[C@]12C |  |  | 94 µM | 25 µg/mL (≈ 48.8 µM) |
| CC(=O)O[C@@H](C/C=C(\C)C(=O)O)[C@@H](C)[C@H]1CC[C@@]2(C)C3=C(CC[C@]12C)[C@@]1(C)CC[C@@H](O)C(C)(C)[C@@H]1CC3=O |  |  | 95 µM | 50 µg/mL (≈ 94.6 µM) |
| CC(=O)O[C@H]1CC[C@]2(C)C3=C([C@H](O)C[C@H]2C1(C)C)[C@]1(C)[C@@H](O)C[C@H]([C@H](C)CC/C=C(\C)C(=O)O)[C@@]1(C)CC3 |  |  | 39 µM | 50 µg/mL (≈ 94.2 µM) |
| CC(=O)O[C@@H]1C[C@H]2C(C)(C)C(=O)CC[C@]2(C)C2=C1[C@]1(C)[C@@H](O)C[C@H]([C@H](C)CC/C=C(\C)C(=O)O)[C@@]1(C)CC2 |  |  | > 95 µM | 25 µg/mL (≈ 47.3 µM) |
| CC(=O)O[C@H]1CC[C@]2(C)C3=C([C@H](OC(C)=O)C[C@H]2C1(C)C)[C@]1(C)[C@@H](O)C[C@H]([C@H](C)CC/C=C(\C)C(=O)O)[C@@]1(C)CC3 |  |  | 31 µM | 25 µg/mL (≈ 43.6 µM) |
| CC(=O)O[C@@H](C/C=C(\C)C(=O)O)[C@@H](C)[C@H]1CC[C@@]2(C)C3=C(CC[C@]12C)[C@@]1(C)CC[C@H](O)C(C)(C)[C@@H]1CC3=O |  |  | 87 µM | 1.56 µg/mL (≈ 2.95 µM) |
| C/C(=C\C[C@H](O)[C@@H](C)[C@H]1CC[C@@]2(C)C3=C(CC[C@]12C)[C@@]1(C)CCC(=O)C(C)(C)[C@@H]1CC3)C(=O)O |  |  | 105 µM | 50 µg/mL (≈ 106 µM) |
| CO[C@@H]1C[C@H]2C(C)(C)C(=O)CC[C@]2(C)C2=C1[C@]1(C)CC[C@H]([C@H](C)CC/C=C(\C)C(=O)O)[C@@]1(C)CC2 |  |  | > 103 µM | 25 µg/mL (≈ 51.6 µM) |
| CC(=O)O[C@H]1CC[C@]2(C)C3=C(C(=O)C[C@H]2C1(C)C)[C@]1(C)[C@@H](O)C[C@H]([C@H](C)CC/C=C(\C)C(=O)O)[C@@]1(C)CC3 |  |  | 92 µM | 50 µg/mL (≈ 94.6 µM) |
| CC(=O)O[C@H]1C[C@H]([C@H](C)CC/C=C(\C)C(=O)O)[C@@]2(C)CC=C3C(=CC[C@H]4C(C)(C)C(=O)CC[C@]34C)[C@]12C |  |  | > 98 µM | 12.5 µg/mL (≈ 24.5 µM) |
| CC(=O)O[C@@H](C/C=C(\C)C(=O)O)[C@@H](C)[C@H]1CC[C@@]2(C)C3=C(CC[C@]12C)[C@@]1(C)CC[C@H](OC(C)=O)C(C)(C)[C@@H]1C[C@H]3O |  |  | 84 µM | 25 µg/mL (≈ 43.6 µM) |
| CO[C@@H]1C[C@H]2C(C)(C)[C@@H](OC(C)=O)CC[C@]2(C)C2=C1[C@]1(C)[C@@H](OC(C)=O)C[C@H]([C@H](C)CC/C=C(\C)C(=O)O)[C@@]1(C)CC2 |  |  | 30 µM | 3.13 µg/mL (≈ 5.33 µM) |
| CC(=O)O[C@H]1C[C@H]([C@H](C)CC/C=C(\C)C(=O)O)[C@@]2(C)CCC3=C(CC[C@H]4C(C)(C)[C@@H](O)CC[C@]34C)[C@]12C |  |  | > 96 µM | 12.5 µg/mL (≈ 24.3 µM) |
| CC(=O)O[C@@H](C/C=C(\C)C(=O)O)[C@@H](C)[C@H]1CC[C@@]2(C)C3=C(CC[C@]12C)[C@@]1(C)CC[C@H](OC(C)=O)C(C)(C)[C@@H]1CC3=O |  |  | 32 µM | 6.25 µg/mL (≈ 11 µM) |
| CO[C@@H]1C[C@H]2C(C)(C)[C@H](OC(C)=O)CC[C@]2(C)C2=C1[C@]1(C)CC[C@H]([C@H](C)[C@H](C/C=C(\C)C(=O)O)OC(C)=O)[C@@]1(C)CC2 |  |  | 38 µM | 50 µg/mL (≈ 85.2 µM) |
| CC(=O)O[C@@H](C/C=C(\C)C(=O)O)[C@@H](C)[C@H]1C[C@H](O)[C@@]2(C)C3=C(CC[C@]12C)[C@@]1(C)CC[C@H](OC(C)=O)C(C)(C)[C@@H]1C[C@H]3OC(C)=O |  |  | 77 µM | 12.5 µg/mL (≈ 19.8 µM) |

| SMILES | MIC [1] | IC50 (Vero [2]) | IC50 (Vero [3]) | MIC [4] |
| --- | --- | --- | --- | --- |
| CC(=O)O[C@@H](C/C=C(\C)C(=O)O)[C@@H](C)[C@H]1C[C@H](O)[C@@]2(C)C3=CC[C@H]4C(C)(C)[C@@H](O)CC[C@]4(C)C3=CC[C@]12C |  |  | 95 µM | 6.25 µg/mL (≈ 11.8 µM) |
| CC(=O)O[C@@H](C/C=C(\C)C(=O)O)[C@@H](C)[C@H]1C[C@H](O)[C@@]2(C)C3=C(CC[C@]12C)[C@@]1(C)CCC(=O)C(C)(C)[C@@H]1C[C@H]3O |  |  | > 92 µM | > 50 µg/mL |
| CC(=O)O[C@H]1CC[C@]2(C)C3=CC[C@]4(C)[C@@H]([C@H](C)CC/C=C(\C)C(=O)O)CC[C@@]4(C)C3=CC[C@H]2C1(C)C |  |  | > 101 µM | > 50 µg/mL |
| CO[C@@H]1C[C@H]2C(C)(C)C(=O)CC[C@]2(C)C2=C1[C@]1(C)[C@@H](OC(C)=O)C[C@H]([C@H](C)[C@H](C/C=C(\C)C(=O)O)OC(C)=O)[C@@]1(C)CC2 |  |  | > 83 µM | > 50 µg/mL |
| CC(=O)O[C@H]1C[C@H]([C@H](C)CC/C=C(\C)C(=O)O)[C@@]2(C)CCC3=C(CC[C@H]4C(C)(C)C(=O)CC[C@]34C)[C@]12C |  |  | > 98 µM | 50 µg/mL (≈ 97.5 µM) |
| CC(=O)O[C@@H](C/C=C(\C)C(=O)O)[C@@H](C)[C@H]1C[C@H](OC(C)=O)[C@@]2(C)C3=CC[C@H]4C(C)(C)[C@@H](O)CC[C@]4(C)C3=CC[C@]12C |  |  | 33 µM | > 50 µg/mL |
| C/C(=C\CC[C@@H](C)[C@H]1CC[C@@]2(C)C3=C(CC[C@]12C)[C@@]1(C)CCC(=O)C(C)(C)[C@@H]1C[C@H]3O)C(=O)O |  |  | 103 µM | 3.13 µg/mL (≈ 6.65 µM) |
| CC(=O)O[C@H]1CC[C@]2(C)C3=CC[C@]4(C)[C@@H]([C@H](C)CC/C=C(\C)C(=O)O)C[C@H](O)[C@@]4(C)C3=CC[C@H]2C1(C)C |  |  | 13 µM | 6.25 µg/mL (≈ 12.2 µM) |
| CC(=O)O[C@H]1C[C@H]([C@H](C)CC/C=C(\C)C(=O)O)[C@@]2(C)CCC3=C([C@H](O)C[C@H]4C(C)(C)C(=O)CC[C@]34C)[C@]12C |  |  | > 95 µM | 50 µg/mL (≈ 94.6 µM) |
| CO[C@@H]1C[C@H]2C(C)(C)[C@H](OC(C)=O)CC[C@]2(C)C2=C1[C@]1(C)[C@@H](OC(C)=O)C[C@H]([C@H](C)[C@H](C/C=C(\C)C(=O)O)OC(C)=O)[C@@]1(C)CC2 |  |  | 26 µM | 12.5 µg/mL (≈ 19.4 µM) |
| CC(=O)O[C@@H](C/C=C(\C)C(=O)O)[C@@H](C)[C@H]1C[C@H](OC(C)=O)[C@@]2(C)C3=C(CC[C@]12C)[C@@]1(C)CC[C@@H](OC(C)=O)C(C)(C)[C@@H]1C[C@H]3O |  |  | 28 µM | 12.5 µg/mL (≈ 19.8 µM) |
| CO[C@@H]1C[C@H]2C(C)(C)[C@H](OC(C)=O)CC[C@]2(C)C2=C1[C@]1(C)[C@@H](O)C[C@H]([C@H](C)CC/C=C(\C)C(=O)O)[C@@]1(C)CC2 |  |  | 87 µM | 50 µg/mL (≈ 91.8 µM) |
| CC(=O)O[C@@H](C/C=C(\C)C(=O)O)[C@@H](C)[C@H]1CC[C@@]2(C)C3=CC[C@H]4C(C)(C)[C@H](OC(C)=O)CC[C@]4(C)C3=CC[C@]12C |  |  | 32 µM | 50 µg/mL (≈ 90.1 µM) |
| CO[C@@H]1C[C@H]2C(C)(C)[C@H](OC(C)=O)CC[C@]2(C)C2=C1[C@]1(C)[C@@H](OC(C)=O)C[C@H]([C@H](C)CC/C=C(\C)C(=O)O)[C@@]1(C)CC2 |  |  | > 85 µM | 50 µg/mL (≈ 85.2 µM) |
| CC(=O)O[C@@H](C/C=C(\C)C(=O)O)[C@@H](C)[C@H]1C[C@H](O)[C@@]2(C)C3=C(CC[C@]12C)[C@@]1(C)CC[C@H](OC(C)=O)C(C)(C)[C@@H]1C[C@H]3O |  |  | 83 µM | 12.5 µg/mL (≈ 21.2 µM) |
| CC(=O)O[C@H]1CC[C@]2(C)C3=CC[C@]4(C)[C@@H]([C@H](C)CC/C=C(\C)C(=O)O)C[C@H](OC(C)=O)[C@@]4(C)C3=CC[C@H]2C1(C)C |  |  | 32 µM | 0.391 µg/mL (≈ 0.705 µM) |
| CC(=O)O[C@@H](C/C=C(\C)C(=O)O)[C@@H](C)[C@H]1C[C@H](OC(C)=O)[C@@]2(C)C3=CC[C@H]4C(C)(C)C(=O)CC[C@]4(C)C3=CC[C@]12C |  |  | 87 µM | 25 µg/mL (≈ 44 µM) |
